Test results reported in patent US20040231558A1, “Water-color ink” (priority 2001, published 2004).

Tests used:
Type in all cases: physicochemical
[1] = Evaluation of light fastness-1 (OD value of printed portion after 100 hours xenon fadeometer); settings: for (A)-1 light fastness-1: ink prepared as in Example 1 from the salt named in the row, OD value of printed portion after 100 hours xenon fadeometer
Experimental: (§1) The prepared ink was filled in an ink cartridge for a piezo-type ink-jet printer EM-930C (manufactured by Seiko Epson). The printing was performed with this printer, and the light fastness was evaluated. Further, the storage stability of the ink was evaluated.
(A)-1 Evaluation of Light Fastness-1
Printing density (OD value) was measured after irradiating a printed portion with light for 100 hours using a xenon fadeometer (manufactured by Suga Shikenki) to evaluate the light fastness.

[2] = Evaluation of storage stability of ink (40° C. for 3 months, insoluble matter and clogging); settings: recording liquid stored at 40° C. for 3 months; insoluble matter and clogging
Experimental: as §1
(C) Evaluation of Storage Stability of Ink:
After a recording liquid was stored at 40° C. for 3 months, it was observedwhether or not an insoluble matterwas precipitated, and whether or not clogging occurred after continuous recording with the foregoing printer for a long period of time.

[3] = Evaluation of moisture resistance (image-recorded paper at 40° C. and humidity 85%, visual observation); settings: for (B) moisture resistance: image-recorded paper at 40° C. and humidity 85%, visually observed
[4] = Evaluation of light fastness-2 (OD value of printed portion after 400 hours xenon fadeometer); settings: ink prepared as in Example 1 from the salt named in the row; OD value of printed portion after 400 hours xenon fadeometer
Experimental: as §1
(A)-2 Evaluation of Light Fastness-2
Printing density (OD value) was measured after irradiating a printed-portion with light for 400 hours using axenon fadeometer (manufactured by Suga Shikenki), and the light fastness was evaluated.

[5] = ink prepared as in Example 1, for comparative inks in comparison to the ink of the invention

Row | SMILES | (A)-1 light fastness-1 [1] | (C) storage stability [2] | (B) moisture resistance [3] | (A)-2 light fastness-2 [4] | light fastness (in words) [1, 5] | moisture resistance (in words) [3, 5]
1 | CCCCc1c(N=Nc2cc(C(=O)O)ccc2C(=O)O)c(O)n(CCNc2nc(Cl)nc(NCCn3c(O)c(N=Nc4cc(C(=O)O)ccc4C(=O)O)c(CCCC)c(C#N)c3=O)n2)c(=O)c1C#N [Compound 278] | ⊚ | Δ | ⊚ | ◯ |  | 
2 | Cc1c(N=Nc2cc(C(=O)O)ccc2C(=O)O)c(O)n(CCNc2nc(NCCn3c(O)c(N=Nc4cc(C(=O)O)ccc4C(=O)O)c(C)c(C#N)c3=O)nc(NCCn3c(O)c(N=Nc4cc(C(=O)O)ccc4C(=O)O)c(C)c(C#N)c3=O)n2)c(=O)c1C#N [Compound 262] | ⊚ | Δ | ⊚ | ◯ |  | 
3 | CCCCc1c(N=Nc2cc(C(=O)O)ccc2C(=O)O)c(O)n(CCNc2nc(NCCn3c(O)c(N=Nc4cc(C(=O)O)ccc4C(=O)O)c(CCCC)c(C#N)c3=O)nc(NCCn3c(O)c(N=Nc4cc(C(=O)O)ccc4C(=O)O)c(CCCC)c(C#N)c3=O)n2)c(=O)c1C#N [Compound 271] | ⊚ | ◯ | ⊚ | ⊚ |  | 
4 | Cc1c(N=Nc2cc(C(=O)O)ccc2C(=O)O)c(O)n(CCCCCCNc2nc(Cl)nc(NCCn3c(O)c(N=Nc4cc(C(=O)O)ccc4C(=O)O)c(C)c(C#N)c3=O)n2)c(=O)c1C#N [Compound 249] | ⊚ | Δ | ⊚ | ◯ |  | 
5 | CCc1c(N=Nc2cc(C(=O)O)ccc2C(=O)O)c(O)n(CCNC(=O)c2cc(C(=O)O)c(C(=O)NCCn3c(O)c(N=Nc4cc(C(=O)O)ccc4C(=O)O)c(CC)c(C#N)c3=O)cc2C(=O)O)c(=O)c1C#N [Compound 283] | ⊚ | ◯ | ⊚ | ⊚⊚ |  | 
6 | Cc1c(N=Nc2c(C(=O)O)cccc2C(=O)O)c(O)n(CCNc2nc(NCCn3c(O)c(N=Nc4c(C(=O)O)cccc4C(=O)O)c(C)c(C#N)c3=O)nc(NCCn3c(O)c(N=Nc4c(C(=O)O)cccc4C(=O)O)c(C)c(C#N)c3=O)n2)c(=O)c1C#N [Compound 267] | ⊚ | Δ | ⊚ | ◯ |  | 
7 | Cc1c(N=Nc2cc(C(=O)O)ccc2C(=O)O)c(O)n(CCCNc2nc(Cl)nc(NCCCn3c(O)c(N=Nc4cc(C(=O)O)ccc4C(=O)O)c(C)c(C#N)c3=O)n2)c(=O)c1C#N [Compound 247] | ⊚ | ◯ | ⊚ | ◯ |  | 
8 | Cc1c(N=Nc2cc(C(=O)O)ccc2C(=O)O)c(O)n(CCCNc2nc(NCCn3c(O)c(N=Nc4cc(C(=O)O)ccc4C(=O)O)c(C)c(C#N)c3=O)nc(NCCn3c(O)c(N=Nc4c(C(=O)O)cccc4C(=O)O)c(C)c(C#N)c3=O)n2)c(=O)c1C#N [Compound 270] | ⊚ | Δ | ⊚ | ⊚ |  | 
9 | Cc1c(N=Nc2cccc(C(=O)O)c2C(=O)O)c(O)n(CCNc2nc(NCCn3c(O)c(N=Nc4cccc(C(=O)O)c4C(=O)O)c(C)c(C#N)c3=O)nc(NCCn3c(O)c(N=Nc4cccc(C(=O)O)c4C(=O)O)c(C)c(C#N)c3=O)n2)c(=O)c1C#N [Compound 268] | ⊚ | Δ | ⊚ | ◯ |  | 
10 | Cc1c(N=Nc2cc(C(=O)O)ccc2C(=O)O)c(O)n(CCCNc2nc(NCCn3c(O)c(N=Nc4cc(C(=O)O)ccc4C(=O)O)c(C)c(C#N)c3=O)nc(NCCn3c(O)c(N=Nc4c(C(=O)O)cccc4C(=O)O)c(C)c(C#N)c3=O)n2)c(=O)c1C#N [Compound 274] | ⊚ | Δ | ⊚ | ◯ |  | 
11 | N#Cc1c(C(F)(F)F)c(N=Nc2cc(C(=O)O)ccc2C(=O)O)c(O)n(CCNc2nc(NCCn3c(O)c(N=Nc4cc(C(=O)O)ccc4C(=O)O)c(C(F)(F)F)c(C#N)c3=O)nc(NCCn3c(O)c(N=Nc4cc(C(=O)O)ccc4C(=O)O)c(C(F)(F)F)c(C#N)c3=O)n2)c1=O [Compound 265] | ⊚ | Δ | ⊚ | ⊚ |  | 
12 | CCOC(=O)Cc1c(N=Nc2cc(C(=O)O)ccc2C(=O)O)c(O)n(CCNc2nc(Cl)nc(NCCn3c(O)c(N=Nc4cc(C(=O)O)ccc4C(=O)O)c(CC(=O)OCC)c(C#N)c3=O)n2)c(=O)c1C#N [Compound 255] | ⊚ | ◯ | ⊚ | ◯ |  | 
13 | CCCCc1c(N=Nc2cc(C(=O)O)ccc2C(=O)O)c(O)n(CCNC(=O)c2cc(C(=O)O)c(C(=O)NCCn3c(O)c(N=Nc4cc(C(=O)O)ccc4C(=O)O)c(CCCC)c(C#N)c3=O)cc2C(=O)O)c(=O)c1C#N [Compound 284] | ⊚ | ◯ | ⊚ | ⊚⊚ |  | 
14 | CCc1c(N=Nc2cc(C(=O)O)ccc2C(=O)O)c(O)n(CCCNC(=O)c2cc(C(=O)O)c(C(=O)NCCCn3c(O)c(N=Nc4cc(C(=O)O)ccc4C(=O)O)c(C)c(C#N)c3=O)cc2C(=O)O)c(=O)c1C#N [Compound 280] | ⊚ | ◯ | ⊚ | ⊚ |  | 
15 | Cc1c(N=Nc2cccc(C(=O)O)c2C(=O)O)c(O)n(CCCNc2nc(Cl)nc(NCCCn3c(O)c(N=Nc4cccc(C(=O)O)c4C(=O)O)c(C)c(C#N)c3=O)n2)c(=O)c1C#N [Compound 260] | ⊚ | Δ | ⊚ | ◯ |  | 
16 | O=C(O)c1nn(-c2ccc(S(=O)(=O)O)cc2)c(O)c1N=Nc1ccc(S(=O)(=O)O)cc1 [C. I. Acid Yellow 23, reference compound] |  | ◯ |  |  | poor | poor

Now from value to compound:

Row | (A)-1 light fastness-1 [1] | (C) storage stability [2] | (B) moisture resistance [3] | (A)-2 light fastness-2 [4] | light fastness (in words) [1, 5] | moisture resistance (in words) [3, 5] | SMILES
17 | ⊚ | ◯ | ⊚ | ⊚⊚ |  |  | N#Cc1c(C(F)(F)F)c(N=Nc2cc(C(=O)O)ccc2C(=O)O)c(O)n(CCNC(=O)c2cc(C(=O)O)c(C(=O)NCCn3c(O)c(N=Nc4cc(C(=O)O)ccc4C(=O)O)c(C(F)(F)F)c(C#N)c3=O)cc2C(=O)O)c1=O [Compound 291]
18 | ⊚ | ◯ | ⊚ | ⊚ |  |  | CCc1c(N=Nc2cc(C(=O)O)ccc2C(=O)O)c(O)n(CCNC(=O)c2cc(C(=O)NCCn3c(O)c(N=Nc4cc(C(=O)O)ccc4C(=O)O)c(CC)c(C#N)c3=O)c(C(=O)O)cc2C(=O)O)c(=O)c1C#N [Compound 297]
19 | ⊚ | ◯ | ⊚ | ⊚ |  |  | Cc1c(N=Nc2cc(C(=O)O)ccc2C(=O)O)c(O)n(CCn2c(=O)c3cc4c(=O)n(CCn5c(O)c(N=Nc6cc(C(=O)O)ccc6C(=O)O)c(C)c(C#N)c5=O)c(=O)c4cc3c2=O)c(=O)c1C#N [Compound 342]
20 | ⊚ | ◯ | ⊚ | ⊚⊚ |  |  | Cc1c(N=Nc2cccc(C(=O)O)c2C(=O)O)c(O)n(CCNC(=O)c2cc(C(=O)O)c(C(=O)NCCn3c(O)c(N=Nc4cccc(C(=O)O)c4C(=O)O)c(C)c(C#N)c3=O)cc2C(=O)O)c(=O)c1C#N [Compound 293]
21 | ⊚ | Δ | ⊚ | ⊚ |  |  | Cc1c(N=Nc2cc(C(=O)O)ccc2C(=O)O)c(O)n(CCNC(=O)c2ccc(C(=O)NCCn3c(O)c(N=Nc4cc(C(=O)O)ccc4C(=O)O)c(C)c(C#N)c3=O)c(C(=O)NCCn3c(O)c(N=Nc4cc(C(=O)O)ccc4C(=O)O)c(C)c(C#N)c3=O)c2)c(=O)c1C#N [Compound 305]
22 | ⊚ | Δ | ⊚ | ⊚ |  |  | Cc1c(N=Nc2cc(C(=O)O)ccc2C(=O)O)c(O)n(CCCCCCNC(=O)c2cc(C(=O)NCCCCCCn3c(O)c(N=Nc4cc(C(=O)O)ccc4C(=O)O)c(C)c(C#N)c3=O)c(C(=O)NCCn3c(O)c(N=Nc4cc(C(=O)O)ccc4C(=O)O)c(C)c(C#N)c3=O)cc2C(=O)NCCCCCCn2c(O)c(N=Nc3cc(C(=O)O)ccc3C(=O)O)c(C)c(C#N)c2=O)c(=O)c1C#N [Compound 312]
23 | ⊚ | ◯ | ⊚ | ⊚ |  |  | Cc1c(N=Nc2cc(C(=O)O)ccc2C(=O)O)c(O)n(CCNC(=O)c2cc(C(=O)NCCn3c(O)c(N=Nc4cc(C(=O)O)ccc4C(=O)O)c(C)c(C#N)c3=O)c(C(=O)O)cc2C(=O)O)c(=O)c1C#N [Compound 296]
24 | ⊚ | ◯ | ⊚ | ⊚⊚ |  |  | Cc1c(N=Nc2cc(C(=O)O)ccc2C(=O)O)c(O)n(Cc2ccc(C(=O)O)c(C(=O)O)c2)c(=O)c1C#N [compound 92]
25 | ⊚ | ◯ and Δ | Δ and ◯ | ⊚ and Δ |  |  | Cc1c(N=Nc2cccc(C(=O)O)c2C(=O)O)c(O)n(C(C(=O)O)C(=O)O)c(=O)c1C#N [compound 52]
